Source: US20160108049A1 (TAKEDA Gmbh, priority 2011, published 2016)

Key:
[1] = biological target: T1, human PDE5 (Homo sapiens, UniProt O76074); experiment: Inhibition of PDE5 activity (platelet lysate, SPA assay); type: biochemical; conditions: 0.5 μM cGMP, read-out: PDE5 Inhibitory values measured as -logIC50 (converted)
T1 construct: from tissue; host or cells: human platelets from fresh donor blood (platelet lysate)
Procedure, shortened: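 SPA readout of [3H]cGMP hydrolysis (0.5 μM, 15 min, 37 °C after 5 min preincubation), stopped with yttrium silicate beads containing IBMX. Enzyme was lysate from human platelets, used at 10–20% substrate turnover, with PDE3 (motapizone 1 μM) and PDE2 (10 nM) blockers present. IC50 values fitted non-linearly from concentration-effect curves.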

[2] = biological target: T2, PDE4B1 (Homo sapiens, UniProt Q07343); experiment: Inhibition of PDE4 activity (PDE4B1, SPA assay); type: biochemical; conditions: recombinant PDE4B1, 0.5 μM cAMP; read-out: PDE4B1 Inhibitory values measured as -logIC50 (converted)
T2 construct: made in house; host or cells: SF21 insect cells (baculovirus; virus made in SF9 cells, pCR-Bac vector)
T2 sequence (Q07343 whole entry): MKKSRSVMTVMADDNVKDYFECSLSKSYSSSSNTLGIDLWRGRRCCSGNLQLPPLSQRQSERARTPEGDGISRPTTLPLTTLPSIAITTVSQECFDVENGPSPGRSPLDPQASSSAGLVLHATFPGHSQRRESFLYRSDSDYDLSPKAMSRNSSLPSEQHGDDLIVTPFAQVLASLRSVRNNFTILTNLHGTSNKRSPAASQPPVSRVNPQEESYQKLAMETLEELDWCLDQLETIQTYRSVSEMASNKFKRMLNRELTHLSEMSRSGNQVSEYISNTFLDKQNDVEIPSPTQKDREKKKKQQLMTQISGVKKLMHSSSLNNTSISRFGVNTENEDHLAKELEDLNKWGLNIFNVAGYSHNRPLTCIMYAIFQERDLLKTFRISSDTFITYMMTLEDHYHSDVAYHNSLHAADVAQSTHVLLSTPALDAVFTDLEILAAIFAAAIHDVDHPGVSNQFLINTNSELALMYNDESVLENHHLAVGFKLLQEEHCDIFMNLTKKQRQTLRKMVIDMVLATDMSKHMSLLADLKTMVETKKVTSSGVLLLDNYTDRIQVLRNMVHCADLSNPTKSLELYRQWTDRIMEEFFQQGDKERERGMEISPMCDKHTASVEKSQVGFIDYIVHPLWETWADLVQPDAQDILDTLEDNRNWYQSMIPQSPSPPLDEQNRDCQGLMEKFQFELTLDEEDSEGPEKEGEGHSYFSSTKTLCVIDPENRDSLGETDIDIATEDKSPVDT
Procedure, shortened: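 Read-out is SPA yttrium silicate bead scintillation after IBMX-containing beads stop the reaction. Insect-cell (SF21) lysate enzyme hydrolysed 0.5 μM [3H]cAMP at pH 7.4 with 5 mM Mg2+ for 15 min after a 5 min 37 °C preincubation; IC50 fitted by non-linear regression.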

Row | SMILES | IC50 [1] [nM] | IC50 [2] [nM]
1 | COc1cc(OCC2CC2)c(-c2ncnc3c(C(=O)N[C@H](Cc4ccccc4)C(=O)N4CCC(N5N=C(c6ccc(OC)c(OC)c6)CC(C)(C)C5=O)CC4)c[nH]c23)cc1F [Example 68, 4-[2-(cyclopropylmethoxy)-5-fluoro-4-methoxyphenyl]-N-[(2R)-1-{4-[3-(3,4-dimethoxyphenyl)-5,5-dimethyl-6-oxo-5,6-dihydropyridazin-1(4H)-yl]piperidin-1-yl}-1-oxo-3-phenylpropan-2-yl]-5H-pyrrolo[3,2-d]pyrimidine-7-carboxamide] | 1 to 10 | 1 to 10
2 | COc1cc(OCC2CC2)c(-c2ncnc3c(C(=O)N[C@H](Cc4ccc(C(C)(C)C)cc4)C(=O)N4CCC(N5N=C(c6ccc(OC)c(OC)c6)[C@H]6CCCC[C@H]6C5=O)CC4)c(C)[nH]c23)cc1F [Example 5, N-[(2R)-3-(4-tert-butylphenyl)-1-{4-[(4aS,8aR)-4-(3,4-dimethoxyphenyl)-1-oxo-4a,5,6,7,8,8a-hexahydrophthalazin-2(1H)-yl]piperidin-1-yl}-1-oxopropan-2-yl]-4-[2-(cyclopropylmethoxy)-5-fluoro-4-methoxyphenyl]-6-methyl-5H-pyrrolo[3,2-d]pyrimidine-7-carboxamide] | 1 to 10 | 1 to 10
3 | COc1ccc(C2=NN(C3CCN(C(=O)[C@@H](Cc4ccc(Br)cc4)NC(=O)c4c[nH]c5c(-c6c(OCC7CC7)ccc7c6OCO7)ncnc45)CC3)C(=O)[C@@H]3CCCC[C@H]23)cc1OC [Example 99, N-[(2R)-3-(4-bromophenyl)-1-{4-[(4aS,8aR)-4-(3,4-dimethoxyphenyl)-1-oxo-4a,5,6,7,8,8a-hexahydrophthalazin-2(1H)-yl]piperidin-1-yl}-1-oxopropan-2-yl]-4-[5-(cyclopropylmethoxy)-1,3-benzodioxol-4-yl]-5H-pyrrolo[3,2-d]pyrimidine-7-carboxamide] | 1 to 10 | 1 to 10
4 | CCOc1ccc(C[C@@H](NC(=O)c2c(C)[nH]c3c(-c4cc(F)c(OC)cc4OCC4CC4)ncnc23)C(=O)N2CCC(N3N=C(c4ccc(OC)c(OC)c4)[C@H]4CCCC[C@H]4C3=O)CC2)cc1 [Example 8, 4-[2-(cyclopropylmethoxy)-5-fluoro-4-methoxyphenyl]-N-[(2R)-1-{4-[(4aS,8aR)-4-(3,4-dimethoxyphenyl)-1-oxo-4a,5,6,7,8,8a-hexahydrophthalazin-2(1H)-yl]piperidin-1-yl}-3-(4-ethoxyphenyl)-1-oxopropan-2-yl]-6-methyl-5H-pyrrolo[3,2-d]pyrimidine-7-carboxamide] | < 1 | 1 to 10
5 | COc1ccc(C2=NN(C3CCN(C(=O)[C@@H](Cc4cccc(C)c4)NC(=O)c4c(C)[nH]c5c(-c6c(OCC7CC7)ccc7c6OCO7)ncnc45)CC3)C(=O)[C@@H]3CCCC[C@H]23)cc1OC [Example 17, 4-[5-(cyclopropylmethoxy)-1,3-benzodioxol-4-yl]-N-[(2R)-1-{4-[(4aS,8aR)-4-(3,4-dimethoxyphenyl)-1-oxo-4a,5,6,7,8,8a-hexahydrophthalazin-2(1H)-yl]piperidin-1-yl}-3-(3-methylphenyl)-1-oxopropan-2-yl]-6-methyl-5H-pyrrolo[3,2-d]pyrimidine-7-carboxamide] | < 1 | < 1
6 | COc1ccc(C2=NN(C3CCN(C(=O)[C@@H](Cc4ccc(N5CCC5=O)cc4)NC(=O)c4c[nH]c5c(-c6c(OCC7CC7)ccc7c6OCO7)ncnc45)CC3)C(=O)[C@@H]3CCCC[C@H]23)cc1OC [Example 112, 4-[5-(cyclopropylmethoxy)-1,3-benzodioxol-4-yl]-N-{(2R)-1-{4-[(4aS,8aR)-4-(3,4-dimethoxyphenyl)-1-oxo-4a,5,6,7,8,8a-hexahydrophthalazin-2(1H)-yl]piperidin-1-yl}-1-oxo-3-[4-(2-oxoazetidin-1-yl)phenyl]propan-2-yl}-5H-pyrrolo[3,2-d]pyrimidine-7-carboxamide] | < 1 | < 1
